Experimental data published in article PMC8619046, “ABCB1 and ABCG2 Control Brain Accumulation and Intestinal Disposition of the Novel ROS1/TRK/ALK Inhibitor Repotrectinib, While OATP1A/1B, ABCG2, and CYP3A Limit Its Oral Availability” (Pharmaceutics, 2021).
Where two headings read alike, the source gives them in different places.

Legend:
[1] = system: ROS1-positive advanced NSCLC; details: cited from earlier work; for confirmed objective response rate (ORR): preliminary TRIDENT-1 data
human ABCB1 [2] = system: T1, human ABCB1; test: Transepithelial transport, MDCK-II cells transduced with hABCB1; type: in vitro ADME; details: MDCK-MDR1, pH 7.4, with zosuquidar 5 µM, MDCK-II hABCB1, 5 µM, + zosuquidar 5 µM, read-out: efflux transport ratio r
T1 construct: expressed in transfected cells; host or cells: MDCK-II cells stably transduced with hABCB1 cDNA (made in the authors' institute)
Source text: (§1) Polarized Madin-Darby Canine Kidney (MDCK-II) cells (ECACC 00062107) stably transduced with either human (h) ABCB1, hABCG2 or mouse (m) Abcg2 cDNA were generated in our institute between 1995–2005. The proper identity and functionality, such as highly characteristic growth and drug transporter properties, including inhibitor sensitivity, were regularly checked in these epithelial cells. Mycoplasma routinely tested negative in these cells. The passage number was 10–15 when used in the transport experiments.
(§2) Transepithelial transport experiments were performed as previously described with 12-well plates (Transwell 3414, Corning Inc., Kennebunk, ME, USA) containing microporous polycarbonate membrane filters (3.0 µm pore size, 12 mm diameter). […]
(§3) After pre-incubation with 5 µM zosuquidar (ABCB1 inhibitor) and/or 5 µM Ko143 (ABCG2/Abcg2 inhibitor) in both compartments (when appropriate) for 1 h, the transport phase was initiated (t = 0) by replacing the medium in apical and basolateral compartments with fresh DMEM with 10% FBS and the appropriate inhibitor(s), and repotrectinib at 5 µM in the donor compartment. […] The active transport ratio r, calculated by dividing the amount of apically directed drug transport by basolaterally directed drug translocation after 8 h, was used to assess active transport of repotrectinib.

human ABCB1 [3] = target: T2, human ABCB1 (Homo sapiens, UniProt P08183); test: as above; type: in vitro ADME; details: MDCK-MDR1, pH 7.4, MDCK-II hABCB1, 5 µM, no inhibitor, read-out: efflux transport ratio r
T2 construct: expressed in transfected cells; host or cells: MDCK-II cells stably transduced with hABCB1 cDNA (made in the authors' institute)
T2 sequence (P08183 whole entry): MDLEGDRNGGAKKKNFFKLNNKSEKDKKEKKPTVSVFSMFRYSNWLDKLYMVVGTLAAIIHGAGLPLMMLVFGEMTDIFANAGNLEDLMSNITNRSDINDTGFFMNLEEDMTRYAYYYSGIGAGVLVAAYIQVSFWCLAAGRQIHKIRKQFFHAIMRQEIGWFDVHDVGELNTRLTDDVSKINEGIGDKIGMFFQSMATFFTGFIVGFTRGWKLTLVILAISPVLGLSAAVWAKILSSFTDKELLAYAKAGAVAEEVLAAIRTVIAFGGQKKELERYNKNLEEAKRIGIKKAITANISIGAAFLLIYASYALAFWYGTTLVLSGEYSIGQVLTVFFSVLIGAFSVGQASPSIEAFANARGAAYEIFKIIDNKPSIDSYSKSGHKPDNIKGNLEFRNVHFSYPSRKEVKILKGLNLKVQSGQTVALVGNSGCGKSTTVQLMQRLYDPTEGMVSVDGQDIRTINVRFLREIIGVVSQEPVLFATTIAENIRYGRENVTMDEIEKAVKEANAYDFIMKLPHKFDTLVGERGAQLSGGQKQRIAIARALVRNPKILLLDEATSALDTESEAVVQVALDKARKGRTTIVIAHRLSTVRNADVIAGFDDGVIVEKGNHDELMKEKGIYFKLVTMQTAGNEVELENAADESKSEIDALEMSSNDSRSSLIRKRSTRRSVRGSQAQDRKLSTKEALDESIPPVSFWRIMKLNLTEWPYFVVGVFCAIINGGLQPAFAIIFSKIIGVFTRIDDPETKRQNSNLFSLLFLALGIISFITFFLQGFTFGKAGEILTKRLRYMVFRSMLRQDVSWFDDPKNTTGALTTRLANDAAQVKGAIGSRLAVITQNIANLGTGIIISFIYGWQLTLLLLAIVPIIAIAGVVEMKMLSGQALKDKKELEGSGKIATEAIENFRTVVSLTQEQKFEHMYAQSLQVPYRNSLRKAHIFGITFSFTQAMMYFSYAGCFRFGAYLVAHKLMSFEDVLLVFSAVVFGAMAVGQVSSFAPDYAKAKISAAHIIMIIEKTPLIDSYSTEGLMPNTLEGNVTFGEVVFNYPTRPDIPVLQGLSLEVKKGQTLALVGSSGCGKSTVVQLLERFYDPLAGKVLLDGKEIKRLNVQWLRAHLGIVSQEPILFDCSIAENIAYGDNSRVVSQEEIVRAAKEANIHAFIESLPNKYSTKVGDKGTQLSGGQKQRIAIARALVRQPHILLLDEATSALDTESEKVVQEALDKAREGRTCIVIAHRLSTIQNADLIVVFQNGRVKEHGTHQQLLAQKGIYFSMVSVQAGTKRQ
Source text: as §1, §2, §3

In the case of `C[C@H]1CNC(=O)c2cnn3ccc(nc23)N[C@H](C)c2cc(F)ccc2O1` [repotrectinib], the “confirmed objective response rate (ORR)” value ([1]; TKI-naïve ROS1 + NSCLC patients) is given as 86%, the “confirmed objective response rate (ORR)” value ([1]; TKI-pretreated patients) is given as 50% and the “treatment-related adverse events, severity” value ([1]; majority of events, manageable) is given as “grade 1 or grade 2”. The “most common adverse effect” value ([1]; on-going phase I clinical trial (NCT03063116)) was “dizziness”, the “patients with prominent clinical activity” value ([1]; patients who had disease progression on prior TRK inhibitors) was 50% and the efflux ratio at 8 h, 5 µM (human ABCB1 [2]) was 1.1. It also gave an efflux ratio at 8 h, 5 µM (human ABCB1 [3]) of 13.5.
